pEC50: −log10 of the molar value.
Columns and labels:
CLK2 kinase = CLK2 kinase (Homo sapiens, UniProt P49760); experiment: CLK2 kinase activity assay (Z-lyte FRET); assay type: biochemical; conditions: Z-lyte Ser/Thr 6 peptide, 60 μM ATP, 1 h at room temperature;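 further: FRET read-out as coumarin to fluorescein emission ratio, unphosphorylated peptide as 0% and phosphorylated peptide as 100% controls, duplicate reactions, non-linear regression fit of dose-response curves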
[1] = system: Wnt pathway activity (SW480 colon carcinoma cells stably expressing the Sp5-Luc reporter); experiment: Wnt pathway activity screening assay (Sp5-Luc reporter gene assay); conditions: Homo sapiens, SW480, Table 4; SW480 cells stably expressing Sp5-Luc reporter, 10-point dose-response from 10 μM, 36 to 48 hours
Experimental: The screening assay for Wnt pathway activity is described as follows.
SW480 colon carcinoma cells were transduced with a lentiviral vector expressing luciferase with a human Sp5 promoter consisting of a sequence of eight TCF/LEF binding sites. […] These stably transduced SW480 cells were expanded in cell culture and used for all further screening activities. Each compound was dissolved in DMSO as a 10 mM stock and used to prepare compound source plates. Serial dilution (1:3, 10-point dose-response curves starting from 10 μM) and compound transfer was performed using the ECHO 550 (Labcyte, Sunnyvale, Calif.) into 384-well white solid bottom assay plates (Greiner Bio-One) with appropriate DMSO backfill for a final DMSO concentration of 0.1%. […] Following incubation, 15 μl of BriteLite Plus luminescence reagent (Perkin Elmer) was added to each well of the 384-well assay plates. The plates were placed on an orbital shaker for 2 min and then luminescence was quantified using the Envision (Perkin Elmer) plate reader.

CLK3 kinase = CLK3 kinase (Homo sapiens, UniProt P49761); experiment: CLK3 kinase activity assay (Z-lyte FRET); assay type: biochemical; conditions: Z-lyte Ser/Thr 18 peptide, 156 μM ATP, 1 h at room temperature;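 further: kinase activity read as coumarin/fluorescein emission ratio by FRET, unphosphorylated peptide as 0% and phosphorylated peptide as 100% control, values from non-linear regression of dose-response curves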
Chain of CLK3 kinase (P49761 whole entry): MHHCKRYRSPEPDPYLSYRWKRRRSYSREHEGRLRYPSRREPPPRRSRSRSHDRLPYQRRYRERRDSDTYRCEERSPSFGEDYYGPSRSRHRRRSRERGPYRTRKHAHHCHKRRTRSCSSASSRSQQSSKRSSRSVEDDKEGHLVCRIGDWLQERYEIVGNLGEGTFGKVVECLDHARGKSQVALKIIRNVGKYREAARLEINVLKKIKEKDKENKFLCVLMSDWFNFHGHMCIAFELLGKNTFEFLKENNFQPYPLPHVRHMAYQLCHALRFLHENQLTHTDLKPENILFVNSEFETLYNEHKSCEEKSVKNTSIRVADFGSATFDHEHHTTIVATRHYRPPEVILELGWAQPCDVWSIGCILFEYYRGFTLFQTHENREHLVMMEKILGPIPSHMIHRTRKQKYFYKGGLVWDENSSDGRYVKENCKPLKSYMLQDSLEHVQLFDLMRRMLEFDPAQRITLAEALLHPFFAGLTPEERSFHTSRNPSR
Experimental: This is a non-radioactive assay using fluorescence resonance energy transfer (FRET) between coumarin and fluorescein to detect kinase activity which is represented as a ratio of coumarin emission/fluorescein emission.
The mixture was allowed to incubate with the representative compounds for one hour at room temperature. All reactions were performed in duplicate. Unphosphorylated (“0% Control”) and phosphorylated (“100% control”) forms of Ser/Thr 18 served as control reactions. Additionally, an 11-point dose-response curve of Staurosporine (1 μM top) was run to serve as a positive compound control.
After incubation, Development Reagent A was diluted in Development Buffer then added to the reaction and allowed to further incubate for one hour at room temperature.
Dose-response curves were generated and inhibitory concentration (IC50) values were calculated using non-linear regression curve fit in the Dotmatics' Studies Software (Bishops Stortford, UK).

[2] = system: primary human mesenchymal stem cells (hMSCs); experiment: Chondrogenesis screening using primary human mesenchymal stem cells; assay type: cell-based; conditions: Homo sapiens, Mesenchymal stem cells, hMSC chondrogenesis; for EC50: concentration required to induce 50% levels of chondrogenesis with TGF-β3 as positive control, read-out: Conc (nM) of 50% TGF-β3 activity; for Emax: maximum activity relative to TGF-β3 (10 ng/mL) positive control, read-out: Max. Activity as % TGF-β3 activity
In short: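 Derived values are EC50 for 50% chondrogenesis, maximal activity and the dose giving it. These come from nodule area in passage 3–6 primary hMSCs, expressed as fold change over the mean of 3 same-plate DMSO wells, 2–3 replicates per concentration. TGF-β3 served as positive control.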

Chain of CLK2 kinase (P49760 whole entry): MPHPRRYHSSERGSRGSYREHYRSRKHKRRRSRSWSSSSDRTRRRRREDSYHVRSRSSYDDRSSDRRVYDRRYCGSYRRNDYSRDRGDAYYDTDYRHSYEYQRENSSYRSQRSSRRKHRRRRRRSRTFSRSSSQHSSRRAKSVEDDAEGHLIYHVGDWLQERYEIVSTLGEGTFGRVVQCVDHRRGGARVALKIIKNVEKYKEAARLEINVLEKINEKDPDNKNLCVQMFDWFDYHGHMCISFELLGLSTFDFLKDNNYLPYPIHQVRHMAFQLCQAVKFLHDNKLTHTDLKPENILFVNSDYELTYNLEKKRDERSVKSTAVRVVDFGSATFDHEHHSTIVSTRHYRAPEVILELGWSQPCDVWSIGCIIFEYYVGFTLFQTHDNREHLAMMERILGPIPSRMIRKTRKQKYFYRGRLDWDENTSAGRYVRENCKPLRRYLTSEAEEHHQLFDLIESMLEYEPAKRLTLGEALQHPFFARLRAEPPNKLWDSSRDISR

Row | pEC50 (CLK2 kinase) | pEC50 [1] | pEC50 (CLK3 kinase) | EC50 [2] [nM] | Compound | Emax [2] [%]
1 | 8.70 | 5.90 | 6.67 | 30 | CC(C)Nc1cncc(-c2ccc3[nH]nc(-c4nc5c(-c6cccnc6)cncc5[nH]4)c3n2)c1 [compound 194] | 64.6
2 | 9.00 | 5.76 | 6.55 | 10 | CC(C)Nc1cncc(-c2ccc3[nH]nc(-c4nc5c(-c6cccnc6)ccnc5[nH]4)c3n2)c1 [compound 195] | 114
3 | 8.30 | 6.00 | 6.00 | – | CCCC(=O)Nc1cncc(-c2ccc3[nH]nc(-c4nc5c(-c6ccncc6)cncc5[nH]4)c3n2)c1 [compound 196] | 31
4 | 8.70 | 7.68 | 7.19 | 100 | CC(C)(C)CC(=O)Nc1cncc(-c2ccc3[nH]nc(-c4nc5ccncc5[nH]4)c3c2)c1 [compound 202] | 152
5 | 7.57 | 8.10 | 6.69 | – | O=C(Nc1cncc(-c2ccc3[nH]nc(-c4nc5ccncc5[nH]4)c3c2)c1)C1CC1 [compound 204] | 93.8
6 | 9.00 | 7.28 | 7.29 | – | CN1CCN(c2cncc3[nH]c(-c4n[nH]c5ccc(-c6cccnc6)cc45)nc23)CC1 [compound 213] | 80.6
7 | 8.70 | < 5.00 | 6.07 | – | CN1CCN(c2ccnc3[nH]c(-c4n[nH]c5ccc(-c6cncc(N)c6)nc45)nc23)CC1 [compound 216] | 46.9
8 | 7.92 | 7.98 | 7.25 | 30 | Cc1cn(-c2nccc3[nH]c(-c4n[nH]c5ccc(-c6cncc(NC(=O)CC(C)C)c6)cc45)nc23)cn1 [compound 224] | 73.7
9 | 8.00 | < 5.00 | 5.88 | – | Cc1cn(-c2cncc3[nH]c(-c4n[nH]c5ccc(-c6cncc(NC(=O)C7CCC7)c6)nc45)nc23)cn1 [compound 227] | 47.2
10 | 8.70 | 7.34 | 7.36 | 100 | c1cncc(-c2ccc3[nH]nc(-c4nc5c(-c6ccoc6)cncc5[nH]4)c3c2)c1 [compound 229] | 149
11 | 8.30 | 7.15 | 6.84 | 30 | CC(C)(C)C(=O)Nc1cncc(-c2cnc3[nH]nc(-c4nc5c(-c6ccoc6)cncc5[nH]4)c3c2)c1 [compound 232] | 144
12 | 8.10 | 7.26 | 6.28 | – | CC(C)CC(=O)Nc1cncc(-c2cc3c(-c4nc5c(-c6ccoc6)cccc5[nH]4)n[nH]c3cn2)c1 [compound 233] | 58
13 | 7.72 | 7.36 | 6.69 | 30 | CC(C)Nc1cncc(-c2ccc3[nH]nc(-c4nc5c(-c6ccoc6)nccc5[nH]4)c3c2)c1 [compound 236] | 90.2

More lines, now with the values behind:

Row | Compound | pEC50 (CLK2 kinase) | pEC50 [1] | pEC50 (CLK3 kinase) | EC50 [2] [nM] | Emax [2] [%]
14 | O=C(Nc1cncc(-c2cnc3[nH]nc(-c4nc5c(-c6cccnc6)cncc5[nH]4)c3c2)c1)C1CCC1 [compound 191] | 8.52 | 7.45 | 7.31 | 300 | 130
15 | CC(C)Nc1cncc(-c2ccc3[nH]nc(-c4nc5c(-c6cccnc6)nccc5[nH]4)c3n2)c1 [compound 193] | 8.70 | 6.01 | 6.49 | 10 | 54.4
16 | O=C(Nc1cncc(-c2ccc3[nH]nc(-c4nc5c(-c6ccncc6)ccnc5[nH]4)c3n2)c1)C1CCCCC1 [compound 198] | 7.96 | 6.00 | 6.01 | 10 | 68.6
17 | c1cncc(-c2cc3c(-c4nc5ccccc5[nH]4)n[nH]c3cn2)c1 [compound 200] | 7.66 | 7.70 | 6.68 | 30 | 80.5
18 | c1cncc(-c2ccc3[nH]nc(-c4nc5cnccc5[nH]4)c3n2)c1 [compound 201] | 7.82 | < 5.00 | 5.64 | 30 | 54.8
19 | CC(C)(C)CC(=O)Nc1cncc(-c2ccc3[nH]nc(-c4nc5ccncc5[nH]4)c3n2)c1 [compound 203] | 7.96 | < 5.00 | 6.25 | 10 | 54.1
20 | CCC(=O)Nc1cncc(-c2ccc3[nH]nc(-c4nc5c(N6CCCCC6)cncc5[nH]4)c3n2)c1 [compound 206] | 7.92 | < 5.00 | 6.67 | 900 | 69.8
21 | CCC(=O)Nc1cncc(-c2ccc3[nH]nc(-c4nc5c(N6CCCCC6)ccnc5[nH]4)c3n2)c1 [compound 207] | 8.52 | < 5.00 | 5.89 | – | 38.3
22 | CC(C)(C)C(=O)Nc1cncc(-c2ccc3[nH]nc(-c4nc5c(N6CCCCC6)cncc5[nH]4)c3c2)c1 [compound 209] | 7.96 | 7.39 | 7.03 | 100 | 114
23 | O=C(Nc1cncc(-c2ccc3[nH]nc(-c4nc5c(N6CCCCC6)cncc5[nH]4)c3c2)c1)C1CCC1 [compound 210] | 8.15 | 7.41 | 7.27 | 30 | 106
24 | FC1(F)CCN(Cc2cncc(-c3ccc4[nH]nc(-c5nc6c(N7CCCCC7)cncc6[nH]5)c4c3)c2)C1 [compound 211] | 8.10 | 7.70 | 6.97 | – | 80.1
25 | FC1(F)CCN(Cc2cncc(-c3cc4c(-c5nc6c(N7CCCCC7)cncc6[nH]5)n[nH]c4cn3)c2)C1 [compound 212] | 8.30 | 6.93 | 7.05 | 10 | 100
26 | CN1CCN(c2nccc3[nH]c(-c4n[nH]c5ccc(-c6cncc(N)c6)nc45)nc23)CC1 [compound 214] | 8.70 | < 5.00 | 6.46 | 100 | 135
27 | CN1CCN(c2cncc3[nH]c(-c4n[nH]c5ccc(-c6cncc(N)c6)nc45)nc23)CC1 [compound 215] | 8.30 | < 5.00 | 6.30 | 30 | 64.6
28 | CN1CCN(c2cncc3[nH]c(-c4n[nH]c5ccc(-c6cncc(N7CCOCC7)c6)cc45)nc23)CC1 [compound 218] | 9.00 | 7.08 | 7.49 | – | 63.8
29 | Cc1cn(-c2nccc3[nH]c(-c4n[nH]c5ccc(-c6cncc(NC(=O)C(C)(C)C)c6)nc45)nc23)cn1 [compound 221] | 8.52 | < 5.00 | 6.73 | 30 | 69.7
30 | Cc1cn(-c2ccnc3[nH]c(-c4n[nH]c5ccc(-c6cncc(NC(=O)C(C)(C)C)c6)nc45)nc23)cn1 [compound 223] | 8.52 | < 5.00 | 6.91 | 10 | 70.2
31 | Cc1cn(-c2nccc3[nH]c(-c4n[nH]c5ccc(-c6cncc(NC(=O)CC(C)C)c6)nc45)nc23)cn1 [compound 226] | 8.40 | 5.54 | 6.94 | 30 | 69.3
32 | Cc1cn(-c2ccnc3[nH]c(-c4n[nH]c5ccc(-c6cncc(NC(=O)C7CCC7)c6)nc45)nc23)cn1 [compound 228] | 8.40 | < 5.00 | 6.97 | 300 | 69.1
33 | CCCC(=O)Nc1cncc(-c2cnc3[nH]nc(-c4nc5c(-c6ccoc6)cccc5[nH]4)c3c2)c1 [compound 230] | 8.40 | 7.20 | 7.06 | 100 | 111
34 | CCCCC(=O)Nc1cncc(-c2ccc3[nH]nc(-c4nc5c(-c6ccoc6)cncc5[nH]4)c3n2)c1 [compound 231] | 8.52 | < 5.00 | 6.44 | 10 | 73.6
35 | O=C(Cc1ccccc1)Nc1cncc(-c2ccc3[nH]nc(-c4nc5c(-c6ccoc6)cncc5[nH]4)c3c2)c1 [compound 234] | 8.22 | 7.48 | 6.92 | 30 | 102
36 | O=C(Nc1cncc(-c2cnc3[nH]nc(-c4nc5c(-c6ccoc6)cncc5[nH]4)c3c2)c1)c1ccccc1 [compound 235] | 8.10 | 7.29 | 5.58 | 100 | 110
37 | CC(C)Nc1cncc(-c2cnc3[nH]nc(-c4nc5c(-c6ccoc6)nccc5[nH]4)c3c2)c1 [compound 237] | 8.15 | 7.28 | 6.87 | 30 | 72
38 | CC(C)Nc1cncc(-c2ccc3[nH]nc(-c4nc5c(-c6ccoc6)nccc5[nH]4)c3n2)c1 [compound 238] | 8.70 | 6.53 | 6.64 | 30 | 76.2
39 | CC(C)Nc1cncc(-c2ccc3[nH]nc(-c4nc5c(-c6ccoc6)cncc5[nH]4)c3n2)c1 [compound 239] | 8.70 | 6.22 | 7.06 | 30 | 75.3

Reference: patent US20230000842A1, “METHODS OF TREATING CARTILAGE DISORDERS THROUGH INHIBITION OF CLK AND DYRK” (SAMUMED, LLC, priority 2019, published 2023)
